# Where a SMILES comes first, the peptide text is derived from it. [ ]: non-standard residue; d: D form.
# Tests used:
# PSD-95-PDZ2 [1] = target: T1, PSD-95-PDZ2 (Homo sapiens, UniProt P78352); assay: Fluorescence polarization (FP) competition assay against cyclic nNOS TAMRA probe; type: binding; conditions: for Relative Ki (Ki mut/Ki WT): FP inhibition constant normalized to WT value; for Ki: FP competition, cyclic nNOS TAMRA probe, mean of triplicates, N.B. = not binding, read-out: Ki
# T1 construct: 7xHis (N); made in house; host or cells: Escherichia coli B21 pLys (for the mutants, 'as previously described')
# Method: Fluorescence polarization (FP). FP assays were performed in a 384-well plate format. Fluorescence polarization was measured using a Safire 2 plate reader. The instrument Z-factor was optimized for each assay. The G-factor was calibrated to an initial milli polarization value of 20. The wavelength for the cyclic nNOS β-hairpin TAMRA probe was: ex: 530 nm and em: 580 nm. Every measurement was performed in NaPI 50 mM, 50 mM NaCl and 1% BSA at pH 7.2, 25° C. […] The curves were done in triplicates. Then, the polarization was fitted into a one-site binding model using Prism software 8.0 (GraphPad), from which the Kd can be measured. […] The mili polarization (mP) values were plotted as a function of peptide concentration and fitted to a sigmoidal dose-response curve using Prism software 8.0 (GraphPad). The Ki values were calculated according to Nikolovska-Coleska Z. et al.^40-41
# PSD-95-PDZ2 [2] = target: T2, PSD-95-PDZ2 (Homo sapiens, UniProt P78352, V178C); assay: SPOT peptide array screening with TAMRA labelled PSD-95-PDZ2; type: binding; conditions: SPOT array, TAMRA labelled PSD-95-PDZ2-V178C, normalized to WT
# T2 construct: screened with the TAMRA labelled PSD-95-PDZ2-V178C domain; 7xHis (N); made in house
# Method: SPOT peptide array synthesis. To generate the cyclic nNOSβ-hairpin arrays, we used the Intavis MultiPep spotter (Intavis Bioanalytical instruments). The membranes employed in this assay were SynthoPlan APEG CE (standard amino-modified acid stable sellulose membrane with a PEG-spacer), 10×15 cm with a loading of 400 nmol cm^−2. Solutions of 0.3 M Fmoc-AA-OH and 0.3 M Oxyma Pure were prepared in N-methyl-2-pyrrolidone (NMP). The activator solution consisted of 0.3 M DIC and 0.3 M of 2,4,6-trimethylpyridine (Collidine) in NMP. The capping solution consisted of a solution of 1 M acetic anhydride and 0.05 M of 4-dimethylaminopyridine (DMAP) in NMP. The deprotection solution consisted of 20% piperidine in NMP. AA couplings were performed 1 h,4 times. Deprotection of the Fmoc groups was performed 15min,2 times. Membrane washing between couplings or deprotections was performed with NMP and ethanol. Elongation of peptides in cellulose membrane was started by coupling first the Fmoc-PEG(9)-OH (Iris Biotech) and the subsequent mixture of Fmoc-Gly-OH (25%) and Boc-Gly-OH (75%) to lower the total loading of the membrane. Afterwards, the resin was capped with the capping solution and extensively washed and soaked in bromophenol blue (BPB) as a quality control to reveal the SPOTS with a functional amino group. Then, we coupled the quasi-orthogonal group Fmoc-Glu-PP, and carried out the rest of the synthesis until peptide completion. The cellulose bound linear peptides were finally treated with a solution of 95% DCM, 3% TIPS and 2% TFA 3 times, 20 min. to remove the quasi-orthogonal group. Afterwards, the membrane was washed 5 times with DCM and neutralized with 5% DIPEA in DCM. The membrane was then washed 5 more times with DCM, 5 times with NMP and cyclized with 0.3M PyAOP and 0.3M of DIPEA in DMF for 3 h or overnight. Finally, the membrane was dried with DCM and the side-chain protecting groups were cleaved with the standard deprotection cocktail (95% TFA, 2.5% H2O and 2.5% TIPS) or with reagent K [TFA 82.5%, phenol 5%, H2O 5%, thioanisole 5% and 1,2-ethanedithiol (EDT) 2.5%] for 3 h.
# SPOT membrane screening. Membranes were incubated with PBS pH 7.2+0.5% bovine serum albumin (BSA) for 1 h. After the incubation period, the membrane was dried and scanned with an Amershan Typhoon scanner, at 400V, Cy3 wavelength (532 nm). A TIF file of the screening and a file with the blank values were generated using the Image Quant software. Afterwards, a solution of 50 nM of TAMRA labelled PSD-95-PDZ2 domain was prepared in PBS pH 7.2+0.5% BSA and was added to the membrane. The membrane was left incubating in a Polymax 1040 rocking table for 1 h protected from the light. Passed the incubation time, the excess of labelled protein was removed by washing the membrane 3 times with PBS+0.5% BSA. Finally, the membrane fluorescence values were measured with the Amershan Typhoon scanner at 400V, Cy3 wavelength (532 nm). Using the Image Quant software, the TIF image of the screening and a file with the fluorescence values of the peptides with the TAMRA labelled PSD-95-PDZ2 were generated. The blank was then subtracted from the fluorescence values of the peptides screened against the TAMRA labelled PSD-95-PDZ2.
# A deep mutational scan was performed on the WT scaffold, exchanging each AA to the remaining 19 L-AAs. Each array contained three copies of the individual peptides as technical replicates. Additionally, three controls were included in the design: the cyclic nNOS β-hairpin WT control (positive control), a linear nNOS peptide (cyclization control) and a cyclic nNOS β-hairpin with a F111V substitution (negative control previously tested in FP competition assays). For array screening, a mutation in PSD-95-PDZ2 residue V178 (PSD-95-PDZ2-V178C) was introduced, which was subsequently labelled with TAMRA maleimide. […]
Structure (SMILES),Relative Ki (Ki mut/Ki WT) (PSD-95-PDZ2 [1]),Normalized SPOT fluorescence (Mut/WT) (PSD-95-PDZ2 [2]),Ki (PSD-95-PDZ2 [1]) [nM]
CC[C@H](C)[C@@H]1NC(=O)[C@H]([C@@H](C)O)NC(=O)[C@H](CCCCN)NC(=O)[C@@H]2CCCN2C(=O)[C@H]([C@@H](C)O)NC(=O)CNC(=O)[C@H](CC(=O)O)NC(=O)CNC(=O)[C@H]([C@@H](C)O)NC(=O)[C@H](Cc2ccccc2)NC(=O)[C@H]([C@@H](C)O)NC(=O)[C@H]([C@@H](C)O)NC(=O)[C@H](CCC(=O)O)NC(=O)[C@H](CC(C)C)NC(=O)[C@H](Cc2c[nH]cn2)NC(=O)[C@H]([C@@H](C)O)NC(=O)[C@H](CCC(N)=O)NC(=O)CNC(=O)[C@H]2CCCN2C(=O)[C@H](CCC(N)=O)NC(=O)[C@H](C)NC(=O)[C@H](C(C)C)NC(=O)[C@H](CCCNC(=N)N)NC1=O [compound 73] (cyclo(THLETTFTGDGTPKTIRVAQ[dP]GQ)),1.03,0.61,–
CC[C@H](C)[C@@H]1NC(=O)[C@H]([C@@H](C)O)NC(=O)[C@H](CCCCN)NC(=O)[C@@H]2CCCN2C(=O)[C@H](CC(=O)O)NC(=O)CNC(=O)[C@H](CC(=O)O)NC(=O)CNC(=O)[C@H]([C@@H](C)O)NC(=O)[C@H](Cc2ccccc2)NC(=O)[C@H]([C@@H](C)O)NC(=O)[C@H]([C@@H](C)O)NC(=O)[C@H](CCC(=O)O)NC(=O)[C@H](CC(C)C)NC(=O)[C@H](Cc2c[nH]cn2)NC(=O)[C@H]([C@@H](C)O)NC(=O)[C@H](CCC(N)=O)NC(=O)CNC(=O)[C@H]2CCCN2C(=O)[C@H](CCC(N)=O)NC(=O)[C@H]([C@@H](C)O)NC(=O)[C@H](C(C)C)NC(=O)[C@H](CCCNC(=N)N)NC1=O [compound 32] (cyclo(THLETTFTGDGDPKTIRVTQ[dP]GQ)),0.32,1.85,480
CC[C@H](C)[C@@H]1NC(=O)[C@H]([C@@H](C)O)NC(=O)[C@H](CCCCN)NC(=O)[C@@H]2CCCN2C(=O)[C@H]([C@@H](C)O)NC(=O)[C@H](C)NC(=O)[C@H](CC(=O)O)NC(=O)CNC(=O)[C@H]([C@@H](C)O)NC(=O)[C@H](Cc2ccccc2)NC(=O)[C@H]([C@@H](C)O)NC(=O)[C@H]([C@@H](C)O)NC(=O)[C@H](CCC(=O)O)NC(=O)[C@H](CC(C)C)NC(=O)[C@H](Cc2c[nH]cn2)NC(=O)[C@H]([C@@H](C)O)NC(=O)[C@H](CCC(N)=O)NC(=O)CNC(=O)[C@H]2CCCN2C(=O)[C@H](CCC(N)=O)NC(=O)[C@H]([C@@H](C)O)NC(=O)[C@H](C(C)C)NC(=O)[C@H](CCCNC(=N)N)NC1=O [compound 65] (cyclo(THLETTFTGDATPKTIRVTQ[dP]GQ)),0.27,1.34,410
CC[C@H](C)[C@@H]1NC(=O)[C@H]([C@@H](C)O)NC(=O)[C@H](CCCCN)NC(=O)[C@@H]2CCCN2C(=O)[C@H]([C@@H](C)O)NC(=O)CNC(=O)[C@H](CC(=O)O)NC(=O)[C@H](C)NC(=O)[C@H]([C@@H](C)O)NC(=O)[C@H](Cc2ccccc2)NC(=O)[C@H]([C@@H](C)O)NC(=O)[C@H]([C@@H](C)O)NC(=O)[C@H](CCC(=O)O)NC(=O)[C@H](CC(C)C)NC(=O)[C@H](Cc2c[nH]cn2)NC(=O)[C@H]([C@@H](C)O)NC(=O)[C@H](CCC(N)=O)NC(=O)CNC(=O)[C@H]2CCCN2C(=O)[C@H](CCC(N)=O)NC(=O)[C@H]([C@@H](C)O)NC(=O)[C@H](C(C)C)NC(=O)[C@H](CCCNC(=N)N)NC1=O [compound 63] (cyclo(THLETTFTADGTPKTIRVTQ[dP]GQ)),3.03,0.68,–
CC[C@H](C)[C@@H]1NC(=O)[C@H]([C@@H](C)O)NC(=O)[C@H](CCCCN)NC(=O)[C@@H]2CCCN2C(=O)[C@H]([C@@H](C)O)NC(=O)CNC(=O)[C@H](C)NC(=O)CNC(=O)[C@H]([C@@H](C)O)NC(=O)[C@H](Cc2ccccc2)NC(=O)[C@H]([C@@H](C)O)NC(=O)[C@H]([C@@H](C)O)NC(=O)[C@H](CCC(=O)O)NC(=O)[C@H](CC(C)C)NC(=O)[C@H](Cc2c[nH]cn2)NC(=O)[C@H]([C@@H](C)O)NC(=O)[C@H](CCC(N)=O)NC(=O)CNC(=O)[C@H]2CCCN2C(=O)[C@H](CCC(N)=O)NC(=O)[C@H]([C@@H](C)O)NC(=O)[C@H](C(C)C)NC(=O)[C@H](CCCNC(=N)N)NC1=O [compound 64] (cyclo(THLETTFTGAGTPKTIRVTQ[dP]GQ)),2.15,1.80,–
CC[C@H](C)[C@@H]1NC(=O)[C@H]([C@@H](C)O)NC(=O)[C@H](CCCCN)NC(=O)[C@@H]2CCCN2C(=O)[C@H]([C@@H](C)O)NC(=O)CNC(=O)[C@H](CC(=O)O)NC(=O)CNC(=O)[C@H]([C@@H](C)O)NC(=O)[C@H](Cc2ccccc2)NC(=O)[C@H]([C@@H](C)O)NC(=O)[C@H]([C@@H](C)O)NC(=O)[C@H](CCC(=O)O)NC(=O)[C@H](CC(C)C)NC(=O)[C@H](Cc2c[nH]cn2)NC(=O)[C@H](C)NC(=O)[C@H](CCC(N)=O)NC(=O)CNC(=O)[C@H]2CCCN2C(=O)[C@H](CCC(N)=O)NC(=O)[C@H]([C@@H](C)O)NC(=O)[C@H](C(C)C)NC(=O)[C@H](CCCNC(=N)N)NC1=O [compound 55] (cyclo(AHLETTFTGDGTPKTIRVTQ[dP]GQ)),1.00,0.97,1500
CC[C@H](C)[C@@H]1NC(=O)[C@H]([C@@H](C)O)NC(=O)[C@H](CCCCN)NC(=O)[C@@H]2CCCN2C(=O)[C@H]([C@@H](C)O)NC(=O)CNC(=O)[C@H](CC(=O)O)NC(=O)CNC(=O)[C@H]([C@@H](C)O)NC(=O)[C@H](Cc2ccccc2)NC(=O)[C@H]([C@@H](C)O)NC(=O)[C@H]([C@@H](C)O)NC(=O)[C@H](C)NC(=O)[C@H](CC(C)C)NC(=O)[C@H](Cc2c[nH]cn2)NC(=O)[C@H]([C@@H](C)O)NC(=O)[C@H](CCC(N)=O)NC(=O)CNC(=O)[C@H]2CCCN2C(=O)[C@H](CCC(N)=O)NC(=O)[C@H]([C@@H](C)O)NC(=O)[C@H](C(C)C)NC(=O)[C@H](CCCNC(=N)N)NC1=O [compound 58] (cyclo(THLATTFTGDGTPKTIRVTQ[dP]GQ)),14.11,0.15,–
CC[C@H](C)[C@@H]1NC(=O)[C@H]([C@@H](C)O)NC(=O)[C@H](CCCCN)NC(=O)[C@@H]2CCCN2C(=O)[C@H]([C@@H](C)O)NC(=O)CNC(=O)[C@H](CC(=O)O)NC(=O)CNC(=O)[C@H]([C@@H](C)O)NC(=O)[C@H](Cc2ccccc2)NC(=O)[C@H]([C@@H](C)O)NC(=O)[C@H]([C@@H](C)O)NC(=O)[C@H](CCC(=O)O)NC(=O)[C@H](CC(C)C)NC(=O)[C@H](Cc2c[nH]cn2)NC(=O)[C@H]([C@@H](C)O)NC(=O)[C@H](CCC(N)=O)NC(=O)CNC(=O)[C@H]2CCCN2C(=O)[C@H](CCC(N)=O)NC(=O)[C@H]([C@@H](C)O)NC(=O)[C@H](C(C)C)NC(=O)[C@H](C)NC1=O [compound 71] (cyclo(THLETTFTGDGTPKTIAVTQ[dP]GQ)),1.65,0.15,–
